Among the data in PubChem BioAssay (NCI) are TGI values, retold here.

Test systems include BT-549 breast; SF-295 CNS; KM12 colon; M14 melanoma; PC-3 prostate; SK-OV-3 ovarian; SK-MEL-2 melanoma; SF-268 CNS; MOLT-4 leukemia; SR leukemia; ACHN renal; MDA-N.
What all share (assay): growth of human tumour cells (NCI), 48 h

Structures are written as SMILES.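 Protocol summary: plate cells (96-well), add compound at 5 concentrations, incubate 48 h, interpolate endpoints linearly. TGI denotes the concentration required for complete inhibition of growth.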 Bounds are passed on as bounds.

For the compound `CC1(C)CCC(=O)NC1CC(=O)CC1NC(=O)CCC1(C)C` (stereo unspecified), the TGI in the assay with BT-549 breast, in the assay with SF-295 CNS, with KM12 colon, with M14 melanoma, in the assay with PC-3 prostate and in the assay on SK-OV-3 ovarian was over 100 µM throughout. For the same compound, the TGI with SK-MEL-2 melanoma, in the assay with SF-268 CNS, in the assay with MOLT-4 leukemia, with SR leukemia, with ACHN renal and in the assay with MDA-N was over 100 µM each time.
Take `Clc1nc(Cl)c(CBr)c(Cl)n1`: the TGI in the assay on BT-549 breast is 4.17 µM; in the assay on SF-295 CNS, 16.1 µM; in the assay with KM12 colon, 7.87 µM; with M14 melanoma, 8.38 µM; in the assay with PC-3 prostate, 17.7 µM; in the assay with SK-OV-3 ovarian, 29 µM. Also, the TGI is 43.1 µM in the assay on SK-MEL-2 melanoma; 23.1 µM in the assay on SF-268 CNS; over 23 µM with MOLT-4 leukemia; over 100 µM in the assay with SR leukemia; 15.7 µM in the assay with ACHN renal; 13.2 µM in the assay on MDA-N.
On to `COc1cc2c(cc1OCCCC(=O)Nc1cc(C(=O)NCCCN(C)C)n(C)n1)N=CC1CCCN1C2=O` (stereo unspecified), for which the TGI in the assay with BT-549 breast is 29.7 µM; in the assay on SF-295 CNS, over 100 µM; in the assay with KM12 colon, over 100 µM; in the assay with M14 melanoma, over 27.6 µM; in the assay on PC-3 prostate, 50.4 µM; with SK-OV-3 ovarian, over 62.3 µM. For the same compound, the TGI with SK-MEL-2 melanoma was 32.7 µM; in the assay with SF-268 CNS it was over 50.4 µM; with MOLT-4 leukemia, 3.65 µM; with SR leukemia, 0.59 µM; in the assay with ACHN renal, 12.6 µM; in the assay on MDA-N, 73.2 µM.
As to `CC(=O)OCC1=C(C)C[C@H]([C@@H](COC(C)=O)C2CCC3C4C[C@H]5O[C@]56CC=CC(=O)[C@]6(C)C4CC[C@@]32C)OC1=O` (stereo partly specified), the TGI is 3.65 µM in the assay with BT-549 breast; 5.59 µM in the assay on SF-295 CNS; 0.593 µM in the assay on KM12 colon; 0.785 µM in the assay on M14 melanoma; 1.27 µM in the assay on PC-3 prostate; 6.93 µM with SK-OV-3 ovarian. In addition, the TGI in the assay with SK-MEL-2 melanoma stood at 1.64 µM; in the assay with SF-268 CNS, 6.78 µM; in the assay with MOLT-4 leukemia it was 0.233 µM; in the assay on SR leukemia it was 0.123 µM; with ACHN renal, 2.68 µM; with MDA-N it was 0.675 µM.
For `CC(=O)O[C@H]1C[C@H]2C(=S)Nc3ccccc3C(=S)N2C1`, the TGI with BT-549 breast, in the assay with SF-295 CNS, in the assay on KM12 colon, in the assay on M14 melanoma, in the assay on PC-3 prostate and in the assay with SK-OV-3 ovarian was over 100 µM throughout. Further, the TGI in the assay on SK-MEL-2 melanoma, in the assay with SF-268 CNS, in the assay with MOLT-4 leukemia, in the assay with SR leukemia, in the assay on ACHN renal and with MDA-N was over 100 µM each time.
As to `CC(=O)N1c2ccccc2C(C)C1c1[nH]c2ccccc2c1C` (stereo unspecified), the TGI with BT-549 breast is 58.1 µM; with SF-295 CNS, 32 µM; in the assay on KM12 colon, 38.4 µM; in the assay on M14 melanoma, 42.5 µM; in the assay with PC-3 prostate, over 100 µM; in the assay on SK-OV-3 ovarian, 43.9 µM. Moreover, the TGI is 40.2 µM in the assay on SK-MEL-2 melanoma; 62 µM in the assay with SF-268 CNS; 77.3 µM with MOLT-4 leukemia; 51.8 µM in the assay with SR leukemia; over 100 µM with ACHN renal; 50.6 µM with MDA-N.
For `CC(=O)OCC1OC(O/C=C(\CN=[N+]=[N-])C(C)=O)C(OC(C)=O)C(OC(C)=O)C1OC(C)=O` (stereo unspecified), the TGI in the assay on BT-549 breast was 31.2 µM; with SF-295 CNS, over 100 µM; in the assay with KM12 colon it was 40.3 µM; in the assay with M14 melanoma, 23.1 µM; in the assay with PC-3 prostate it was 27.8 µM; in the assay on SK-OV-3 ovarian, over 100 µM. Besides, the TGI in the assay with SK-MEL-2 melanoma amounted to 37.2 µM; with SF-268 CNS, 56.9 µM; in the assay with MOLT-4 leukemia, 10.5 µM; in the assay on SR leukemia it was 7.69 µM; in the assay on ACHN renal it was 12.4 µM; in the assay with MDA-N, 30 µM.
Regarding `O=C1C(NCCN2CCOCC2)=C(Cl)C(=O)c2ncccc21`, the TGI turned out to be 2.57 µM in the assay with BT-549 breast; 2.77 µM in the assay with SF-295 CNS; 2.61 µM in the assay with KM12 colon; 1.73 µM in the assay with M14 melanoma; 1.95 µM in the assay with PC-3 prostate; 2.73 µM in the assay on SK-OV-3 ovarian. In addition, the TGI came out at 1.11 µM in the assay with SK-MEL-2 melanoma; 3.37 µM in the assay on SF-268 CNS; 5.69 µM with MOLT-4 leukemia; 3.3 µM in the assay on SR leukemia; 2.31 µM in the assay on ACHN renal; 0.346 µM in the assay on MDA-N.
